In test [1] the test system is MOLM-13. The test is described as follows: Secondary dose-response HTS, Cell Titer Glo. To be noted: secondary high-throughput screen, MOLM-13; for EC50: read-out: average effective concentration, MOLM-13. In kind it is cell-based, human. For orientation: In ATP-based viability assays light output follows the ATP content of the culture.
Test [2] has as its system MV4-11. The experiment in a line: Secondary dose-response HTS, Cell Titer Glo. As to conditions: secondary high-throughput screen, MV4-11; for EC50: read-out: average effective concentration, MV4-11. The format is cell-based, human.
The subject of test [3] is CHRF288-11. The experiment in a line: Secondary dose-response HTS, Cell Titer Glo. To be noted: secondary high-throughput screen, CHRF288-11; for EC50: read-out: average effective concentration, CHRF288-11. In kind it is cell-based, human.
The subject of test [4] is CMK. The test is described as follows: Secondary dose-response HTS, Cell Titer Glo. In kind it is cell-based, human. To be noted: CMK; for EC50: read-out: average effective concentration, CMK.
Test [5] concerns CMS. The experiment in a line: Secondary dose-response HTS, Cell Titer Glo. The format is cell-based, human. To be noted: for EC50: read-out: average effective concentration, CMS.
In test [6] the test system is ML2. The experiment in a line: Secondary dose-response HTS, Cell Titer Glo. In kind it is cell-based, human. To be noted: secondary high-throughput screen, ML-2; for EC50: read-out: average effective concentration, ML-2.
In test [7] the test system is U937. The experiment in a line: Secondary dose-response HTS, Cell Titer Glo. In kind it is cell-based, human. To be noted: secondary high-throughput screen, U937; for EC50: read-out: average effective concentration, U937.
In test [8] the test system is M07e. The experiment in a line: cells. To be noted: M-07e, 72 h, read-out: M07e. Details: species or system AML cell lines (8); Secondary HTS, 10-point dose-response in triplicate, Cell Titer Glo viability, four-parameter fit EC50.
The subject of test [9] is CHRF288-11. Details: species or system AML cell lines (8); Primary HTS, single concentration about 10 uM, Cell Titer Glo viability; log10 luminescence, per cent inhibition relative to cycloheximide control. As to conditions: 72 h, relative to cycloheximide control, log10 luminescence, inhibitor, CHRF288-11 %inh, 10 µM.
Test [10] deals with CMK. The arrangement: species or system AML cell lines (8); Primary HTS, single concentration about 10 uM, Cell Titer Glo viability; log10 luminescence, per cent inhibition relative to cycloheximide control. As to conditions: 72 h, relative to cycloheximide control, log10 luminescence, inhibitor, CMK %inh, 10 µM.
The test system of test [11] is CMS. Details: species or system AML cell lines (8); Primary HTS, single concentration about 10 uM, Cell Titer Glo viability; log10 luminescence, per cent inhibition relative to cycloheximide control. To be noted: 72 h, relative to cycloheximide control, log10 luminescence, inhibitor, CMS %inh, 10 µM.
Test [12] has as its system M07e. Details: species or system AML cell lines (8); Primary HTS, single concentration about 10 uM, Cell Titer Glo viability; log10 luminescence, per cent inhibition relative to cycloheximide control. To be noted: 72 h, relative to cycloheximide control, log10 luminescence, inhibitor, M07e %inh, 10 µM.
The subject of test [13] is ML-2. The arrangement: species or system AML cell lines (8); Primary HTS, single concentration about 10 uM, Cell Titer Glo viability; log10 luminescence, per cent inhibition relative to cycloheximide control. To be noted: 72 h, relative to cycloheximide control, log10 luminescence, inhibitor, ML-2 %inh, 10 µM.
Test [14] deals with MV4-11. Details: species or system AML cell lines (8); Primary HTS, single concentration about 10 uM, Cell Titer Glo viability; log10 luminescence, per cent inhibition relative to cycloheximide control. To be noted: 72 h, relative to cycloheximide control, log10 luminescence, inhibitor, MV4-11 %inh, 10 µM.
[15] abbreviates: Homo sapiens, secondary high-throughput screen.
Setting [16] is: Homo sapiens, HTS, secondary high-throughput screen, CMS.
Where [17] appears, read: secondary high-throughput screen.
The mark [18] stands for this setting: secondary high-throughput screen, CMS.

“And” between values parts separate entries of the source, which are not always exact repeats. Identical values can stand only once. Counter-ions that a name gives are not always drawn. Like-named read-outs stand apart in the source and are kept apart here. Where only a bound is given, the exact number is not on record here.

As for `COCCn1c2c([n+](Cc3cnccn3)c1C)C(=O)c1ccccc1C2=O` [YM-155], the EC50 in test [1] (Homo sapiens) was 10 nM; in test [2] (Homo sapiens), 20 nM; in test [3] (Homo sapiens, HTS) it was 2300 nM; in test [4] (setting [15]), 31 nM; in [5] (setting [16]), 91 nM; in [6] (Homo sapiens) it was 21 nM. The EC50 was 22 nM in test [7] (Homo sapiens, U-937) and more than 10000 nM in [8].
`CC1(C)CCC(c2ccc(Cl)cc2)=C(CN2CCN(c3ccc(C(=O)NS(=O)(=O)c4ccc(N[C@H](CCN5CCOCC5)CSc5ccccc5)c(S(=O)(=O)C(F)(F)F)c4)cc3)CC2)C1` [NAVITOCLAX]: the EC50 is 5100 nM in [1] (Homo sapiens); 68 nM in test [2] (Homo sapiens); more than 10000 nM in [3] (Homo sapiens, HTS); 1200 nM in test [4] (Homo sapiens); 29 nM in [5] (Homo sapiens, HTS); 7100 nM in [6] (Homo sapiens). For the same compound, the EC50 is more than 10000 nM in test [7] (Homo sapiens, U-937) and more than 10000 nM in [8]. Moreover, in test [9], the CHRF288-11 %inh was 23.49% and 12.88%. The CMK %inh in test [10] was 132.4% and 82.78%. In addition, the CMS %inh in test [11] was 98.49% and 71.04%. Further, the M07e %inh in test [12] was 48.21% and 73.78%. For the same compound, the ML-2 %inh in [13] was 57.75% and 49.42%. For the same compound, in test [14], the MV4-11 %inh is 77.41% and 95.61%.
Regarding `NC(=O)Nc1cc(-c2cccc(F)c2)sc1C(=O)N[C@H]1CCCNC1` [AZD7762], the EC50 was more than 10000 nM in test [1] (Homo sapiens); 1 nM in test [2] (Homo sapiens); 110 nM in [3] (Homo sapiens, HTS); 45 nM in test [4] (setting [15]); 680 nM in test [5] (setting [16]); 26 nM in [6] (Homo sapiens). Further, the EC50 in test [7] (Homo sapiens, U-937) was 63 nM; in [8] it was more than 10000 nM.
As for `Cc1cnc(NC(=O)Nc2cc(Br)c(C)cc2OC[C@@H]2CNCCO2)cn1` [RABUSERTIB], the EC50 in [1] (Homo sapiens) was found to be 400 nM; in test [2] (Homo sapiens), 500 nM; in test [3] (Homo sapiens, HTS), 2100 nM; in test [4] (setting [15]), 450 nM; in test [5] (setting [16]) it was 8500 nM; in test [6] (Homo sapiens), 74 nM. Further, the EC50 is 3300 nM in test [7] (Homo sapiens, U-937) and more than 10000 nM in [8].
As for `O=C(NCC1(c2nc(-c3ccccc3)cs2)CCOCC1)c1cccc(-c2noc(C(F)(F)F)n2)c1` [TMP269], in [1], the “average effective concentration, MOLM-13” value is “Inactive”. Further, in test [2], the “average effective concentration, MV4-11” value is reported as “Inactive”. For the same compound, the “average effective concentration, CHRF288-11” value in test [3] was “Inactive”. In addition, in [4] (setting [17]), the “average effective concentration, CMK” value is on record as “Inactive”. For the same compound, the “average effective concentration, CMS” value in [5] (setting [18]) is “Inactive”. Moreover, the “average effective concentration, ML-2” value in test [6] is “Inactive”. The “average effective concentration, U937” value in test [7] is listed as “Inactive”.
With I-BET151, the EC50 in [1] came to 650 nM; in test [3], 5100 nM; in test [5] (setting [18]), 2100 nM; in test [6], 2700 nM; in [7] it was 3200 nM. Moreover, the “average effective concentration, MV4-11” value in test [2] was “Inactive”. Moreover, in test [4] (setting [17]), the “average effective concentration, CMK” value is recorded as “Inactive”.
Consider `C=CCNC1=C2C[C@@H](C)C[C@H](OC)[C@H](O)[C@@H](C)/C=C(\C)[C@H](OC(N)=O)[C@@H](OC)/C=C\C=C(/C)C(=O)NC(=CC1=O)C2=O` [TANESPIMYCIN], for which the EC50 amounted to 80 nM in [1] (Homo sapiens); 120 nM in test [2] (Homo sapiens); 1300 nM in [3] (Homo sapiens, HTS); 280 nM in [4] (setting [15]); 180 nM in test [5] (setting [16]); 100 nM in [6] (Homo sapiens). Further, the EC50 is 50 nM in test [7] (Homo sapiens, U-937) and more than 10000 nM in test [8].
As to `COCc1c(C(C)C)nc(C(C)C)c(/C=C/[C@@H](O)C[C@@H](O)CC(=O)O)c1-c1ccc(F)cc1` [CERIVASTATIN], the EC50 amounted to 890 nM in test [1] (Homo sapiens); 340 nM in [2] (Homo sapiens); 49 nM in test [3] (Homo sapiens, HTS); 160 nM in [4] (setting [15]); 6800 nM in [5] (setting [16]); 1600 nM in test [6] (Homo sapiens). Besides, the EC50 in test [7] (Homo sapiens, U-937) is 2300 nM; in test [8], more than 10000 nM.
As to `CNC(=O)c1nn(C)c2c1C(C)(C)Cc1cnc(Nc3ccc(N4CCN(C)CC4)cc3)nc1-2` [MILCICLIB], the EC50 was determined as 1 nM in test [1] (Homo sapiens); 1 nM in [2] (Homo sapiens); 2200 nM in [3] (Homo sapiens, HTS); 29 nM in test [4] (Homo sapiens); 6400 nM in test [5] (Homo sapiens, HTS); 5600 nM in test [6] (Homo sapiens). In addition, the EC50 in test [7] (Homo sapiens, U-937) is 5300 nM; in [8], more than 10000 nM.
Regarding `CC[C@]1(O)C[C@@H]2CN(CCc3c([nH]c4ccccc34)[C@@](C(=O)OC)(c3cc4c(cc3OC)N(C)[C@H]3[C@@](O)(C(=O)OC)[C@H](OC(C)=O)[C@]5(CC)C=CCN6CC[C@]43[C@@H]65)C2)C1` [VINBLASTINE SULFATE], the EC50 in test [1] (Homo sapiens) was 220 nM; in test [2] (Homo sapiens), 56 nM; in test [3] (Homo sapiens, HTS) it was 570 nM; in test [4] (setting [15]), 3800 nM; in test [5] (setting [16]) it was 340 nM; in test [6] (Homo sapiens), 570 nM. Also, the EC50 is 160 nM in test [7] (Homo sapiens, U-937) and more than 10000 nM in test [8].
With `COc1c(C)cnc(Cn2cnc3c(Cl)nc(N)nc32)c1C` [BIIB021], the EC50 in test [1] (Homo sapiens) was 55 nM; in test [2] (Homo sapiens), 56 nM; in [3] (Homo sapiens, HTS) it was 91 nM; in test [4] (setting [15]) it was 67 nM; in test [5] (setting [16]), 110 nM; in [6] (Homo sapiens) it was 83 nM. Also, the EC50 was 30 nM in [7] (Homo sapiens, U-937) and more than 10000 nM in test [8].
Consider `C[C@H](Oc1cc(-c2cnn(C3CCNCC3)c2)cnc1N)c1c(Cl)ccc(F)c1Cl` [(S)-CRIZOTINIB], for which the EC50 came to 3900 nM in test [1]; 3900 nM in [2]; 7800 nM in test [3]; 4200 nM in test [4] (setting [17]); 8300 nM in test [5] (setting [18]); 5000 nM in test [6]. For the same compound, the “average effective concentration, U937” value in test [7] was “Inactive”.
For `Nc1cc(C(F)(F)F)c(-c2cc(N3CCOCC3)nc(N3CCOCC3)n2)cn1` [BUPARLISIB], the EC50 in test [1] (Homo sapiens) worked out at 1500 nM; in test [2] (Homo sapiens), 1800 nM; in test [3] (Homo sapiens, HTS), 5700 nM; in test [4] (Homo sapiens), 4100 nM; in test [5] (Homo sapiens, HTS), 1600 nM; in [6] (Homo sapiens) it was 1400 nM. Besides, the EC50 was 3000 nM in test [7] (Homo sapiens, U-937) and more than 10000 nM in test [8].
`C=C1C(=O)O[C@@H]2C[C@@]3(C)CCCC(=C)[C@@H]3C[C@H]12` [ISOHELENIN]: the EC50 was 5900 nM in [1]; 6700 nM in [3]; 5200 nM in test [4] (setting [17]); 5400 nM in test [5] (setting [18]); 6600 nM in test [6]; 8200 nM in test [7]. Further, the “average effective concentration, MV4-11” value in test [2] was “Inactive”.
MITHRAMYCIN A: the EC50 in [1] is 140 nM; in test [2] it was 53 nM; in [3], 160 nM; in test [4] (setting [17]), 260 nM; in test [5] (setting [18]), 180 nM; in test [6] it was 230 nM. In addition, in test [7], the EC50 was 240 nM.

These data come from PMC6522510 (Nature Communications, 2019).
